The values below come from US7993681B2, “Methods, compositions and devices for inducing stasis in tissues and organs” (Fred Hutchinson Cancer Research Center, priority 2003, dated 2011).

For one data set, the system named is human keratinocytes. In words: Preservation of human skin in carbon monoxide, keratinocyte colony formation. It is filed as cell-based. On the procedure:
Three human foreskins were obtained for this purpose. The foreskin tissue was preserved in keratinocyte growth medium (KGM) containing insulin, EGF (0.1 ng/ml), hydrocortisone ([…]) and bovine pituitary extract (approx. 50 micrograms/ml of protein). Foreskins were rinsed in PBS, and excess fatty tissue was removed. Each foreskin sample was divided into 2 equal pieces. Each piece was placed into a separate container containing a solution of PBS with 24 mg/ml of Dispase II (from Bacillus Polymyxa EC 3.4.24.4:Roche Diagnostics Corp., Indianapolis, Ind.). One container (containing a foreskin piece in PBS with Dispase II) was kept in a humid chamber in a fume hood. The other container (with the other half of the foreskin in PBS with Dispase II) was placed in the same fume hood in an environmental chamber perfused with humidified 100% CO. Both samples were maintained at room temperature for 24 hrs. Methods used to establish defined atmospheric conditions were identical to those used in Example 1.
Following the 24 hr exposure to normoxia or 100% CO, keratinocytes were isolated from the foreskins according to the method described by Boyce et al. (1983; 1985; each of which is incorporated herein by reference in its entirety). Briefly, the epidermis from each foreskin sample was removed to a fresh dish containing PBS. The epidermis was minced and homogenized prior to incubation in 3 ml of 0.05% Trypsin, 1 mM EDTA for 5 minutes, at room temperature, to separate basal cells from the epidermis. After incubation, 6 ml of 400 μg/ml (micrograms per ml) Soybean Trypsin Inhibitor, 1 mg/ml BSA was added and the samples were centrifuged at 900 RPM. The supernatant from each sample was discarded and the sample pellets were resuspended in 10 ml of KGM. Each sample was split into two 10 cm plates each of which contained 5 ml KGM and 100 μl of HEPES pH 7.3 (N-2-hydroxyethylpiperazine-N′-2-ethane sulfonic acid). The plates were incubated in a 37° C. incubator perfused with 95% room air, 5% carbon dioxide for five days.
Cells were inspected visually using an inverted phase contrast microscope. […] Quantitation of the number of viable keratinocytes as judged by colony formation was quantified for two of the three foreskins.

The test system of the next data set is C. elegans embryos. In words: Viability of nematodes in carbon monoxide based atmospheres. It counts as in vivo. To be noted: for Viability to adulthood: 0.25 kPa O2/CO, 24 hrs. The source says: To achieve specific atmospheric conditions the following apparatus was used: a glass syringe barrel having a tip with a locking device such as a LUER-LOK with the large opening of the barrel sealed with a custom-machined steel and rubber fitting to make an airtight seal was locked to via locking device to the inlet port of an environmental chamber having an inlet and an outlet port each fitted with a locking devices such as a LUER-LOK fitting. A defined gas was humidified and provided to the environmental chamber by first venting the gas from a compressed tank (Byrne Specialty Gas, Seattle, Wash.) through a gas washing bottle (500 ml Kimex) filled with double distilled water. The gas washing bottle was connected to the environmental chamber past a gas-flow meter. A gas flow meter was used to provide a regulated 70 cc/min flow through the environmental chamber throughout the 24 hr incubation.
To test whether induced, reversible stasis could be achieved in C. elegans nematodes, 2-cell C. elegans embryos, L3 larvae or adult nematodes were collected and exposed to either an environment of effectively 100% CO, an environment of 100% N2, an environment comprising 500 ppm oxygen balanced with carbon monoxide, or to environments comprising 100, 500 or 1000 ppm oxygen balanced with nitrogen at room temperature. Nematodes were visualized using differential interference contrast microscopy (also known as Nomarski optics). Images were collected and analyzed using NIH image and Adobe Photoshop 5.5. Embryos are approximately 50 μm in length.
Environmental chambers and apparatuses. Oxygen deprivation experiments were carried out using a custom atmospheric chamber designed by W. Van Voorhies (Van Voorhies et al., 2000). The chamber is a 30 mL glass syringe (Fisher #14-825-10B) fitted with a custom steel stopper that is lined with two viton o-rings to ensure a tight seal. The stopper is bored through and has a steel lure lock on the exterior face so that a hose carrying compressed gas can be attached. A defined gas mixture is delivered to the chamber at a constant pressure and flow rate from compressed tanks by passing first through a rotometer (Aalborg, flow-tube number 032-41ST) or mass flow controller (Sierra Instruments #810) to monitor flow rate and then through a 500 ml gas washing bottle (Fisher #K28220-5001) containing 250 ml water to hydrate the gas. ¼″ OD nylon (Cole-Parmer #P-06489-06) or FEP (Cole-Parmer #A-06450-05) tubing was used and connections between tubing and the regulators and between the tubing and the rotometers were made with brass John-Guest-type fittings (Byrne Gas). All other connections were made with either microflow quick-connect fittings (Cole-Parmer #A-06363-57, #A-06363-52) or standard lure fittings (Cole-Parmer #A-06359-37, #A-06359-17).
Viability of nematodes in carbon monoxide based atmospheres. 30-60 embryos were harvested from continuously maintained Bristol N2 and hif-2(ia04) strains as described above. Environmental chambers were continuously perfused at room temperature with pure CO (grade CP) or 500 ppm O2/CO at 70 cc/min for 24 hrs. To achieve 2500 ppm O2/CO or 2500 ppm O2/N2, 5000 ppm O2/N2 was mixed at a 1:1 ratio with either pure CO or pure N2 using two mass flow controllers (Sierra Instruments 810) to precisely monitor flow. Each gas was delivered into a 3-way valve (Cole-Parmer #A-30600-23) at 50 cc/min and the resulting mixture was then passed through a gas washing bottle and into an environmental chamber throughout the 24 hour exposure. All gases were supplied by Byrne Gas (Seattle, Wash.). The 500 ppm O2/CO mixture was certified to 2% of the oxygen content and contained 7000 ppm N2 to ensure a consistent O2/CO ratio throughout the use of the tank.
Cell biological analysis. […]

The test system of data set [1] is humans. To be noted: around 1000 ppm, more than around 1-2 minutes; cited from earlier work.
Another data set relates to rats. To be noted: cited from earlier work.
Data set [2] concerns mice. Particulars: SHIRPA tests before and after exposure.
Data set [3] has as its system mice. To be noted: 80 ppm, cited from earlier work.
The test system of data set [4] is mice. Kind of data set: Core body temperature, heart rate and movement of mice exposed to H2S (telemetry). It is filed as in vivo, mouse. The source says:
Implantation of telemetry devices.
(§1) Exposure of Mice to Regulated Atmosphere.
Regulation of Ambient Temperature. […] Mice were exposed to regulated atmosphere as described above.

In data set [5] the test system is humans. Particulars: cited from earlier work.
Data set [6] deals with mice. In words: Respirometry of mice exposed to H2S. It counts as in vivo, mouse. On the procedure:
as §1
Measurements were over a period of 15 minutes, with the mice in a 0.5 L sealed environmental chamber with flow rates of 500 cc/min. Consumption of oxygen is obtained by subtracting the oxygen concentration when the mouse is present, from the control when the mouse is absent. Likewise, production of carbon dioxide is obtained by subtracting the carbon dioxide concentration when the mouse is present from the control when the mouse is absent. RQ stands for respiratory quotient, and is equal to the ratio of carbon dioxide produced to oxygen […]. […] The change in the respiratory quotient reflects the disparity oxygen consumption and carbon dioxide production by the mice in the presence or absence of the H2S.

[7] abbreviates: warming phase after 80 ppm, cabinet 10.5° C.
Setting [8] is: 80 ppm, 15 minutes, 0.5 L chamber, 500 cc/min.

As for `[C-]#[O+]` [CO, Carbon monoxide], in the data set on human keratinocytes (100% CO, 24 hrs, human skin), the “skin cell survival in CO versus room air” value turned out to be 100 fold. Also, the Total colonies with human keratinocytes (Foreskin 1, 100% CO 24 hr) was 542 colonies (many of which; in the data set with human keratinocytes (Foreskin 2, 100% CO 24 hr), 780 colonies (many of which. Also, the “growth of keratinocyte populations” value with human keratinocytes (foreskin 24 hr in 100% CO at room temperature, then five days culture, three foreskins) is on record as “significant growth”. Also, in the data set on C. elegans embryos (0.05 kPa O2 balanced with carbon monoxide), the embryogenesis during exposure entry was “arrested embryogenesis”. In addition, the Viability to adulthood in the data set on C. elegans embryos (hif-1(ia04) embryos) is reported as 83.9% ± 13.8; with C. elegans embryos (wild-type (N2 strain) embryos) it was 78.7%. Besides, the “lethality and suspended animation” value in the data set with C. elegans embryos (100% carbon monoxide, 24 hr, room temperature, nematodes) is “not lethal and induced reversible suspended animation”. The “progression through embryogenesis during exposure” value in the data set with C. elegans embryos (101 kPa CO) was “did not progress through embryogenesis”. Besides, in the data set with C. elegans embryos (500 ppm oxygen balanced with carbon monoxide, 24 hr), the “suspended animation and survival” value is “entered into suspended animation and survived”. Besides, the lethality entry in the data set on humans [1] is “can expire”.

Consider `S` [H2S, Hydrogen sulfide], for which the perinatal neurotoxicity result in the data set on rats (20 or 50 ppm, 7 hours per day, gestation through post-natal day 21, rats) was “longer dendritic branches with reduced aborization of cerebellar Purkinje cells”. The “adverse effects incl. gross and histopathological examination” value with rats (80 ppm, 6 hrs per day, 5 days per week, 90 days, rats) is on record as “no observed adverse effect”. For the same compound, the “perinatal study, neuropathology and behavior of rat pups” value in the data set on rats (80 ppm) was “no neuropathological effects”. Besides, the discriminated avoidance responses entry in the data set with rats (moderate levels, immediately after end of exposure, rats) is “inhibits discriminated avoidance responses”. Further, in the data set on rats (moderate levels, rats), the “radial arm maze learning” value is given as “interferes with the ability of rats to learn a baited radial arm maze task”. In the data set with mice [2], the “behavioral differences after gas exposure” value is “no detectable behavioral differences”. Moreover, the “adverse effects incl. gross and histopathological examination” value with mice [3] (6 hrs per day, 5 days per week, 90 days) is on record as “no observed adverse effect”. The tolerability entry with mice [3] (exposures lasting up to ten weeks) is reported as “innocuous”. Also, the core temperature with mice [4] (80 ppm, 90 min, incubator lowered to 18° C., first mouse) turned out to be 28.6 °C. This compound registered a heart rate with mice [4] (80 ppm, 3 hrs, dropped from 600 bpm) of 250 bpm. In the data set on mice [4] (80 ppm, 3 hrs, incubator 18° C., second mouse), this compound returned a core temperature of 18.6 °C. In addition, in the data set on mice [4] (80 ppm, 6 hrs, seven mice), the “recovery after rewarming in room air” value is “successfully recovered”. Also, the “lowest average core body temperature” value in the data set on mice [4] (80 ppm, 6 hrs, seven mice, ambient temperature 13° C.) amounted to 15 °C. In addition, the “lowest core body temperature recorded” value in the data set with mice [4] (80 ppm, ambient dropped to less than 10° C. (FIG. 7)) was 10.7 °C. For the same compound, the “time to recover activity after removal from gassing chamber” value with mice [4] (80 ppm, cabinet 10° C., non-telemetry mouse) is recorded as “approximately 90 min”. Further, the “core temperature (estimation from slope of the drop)” value in the data set with mice [4] (80 ppm, cabinet 10° C., telemetry mouse, electronics failed at 15.3° C.) is “approximately 12.5 °C”. This compound gave a core body temperature in the data set with mice [4] (80 ppm, cabinet 10.5° C., approximately six hours) of 10.5 °C. Moreover, the “time to return to normal range of core temperature and activity” value in the data set on mice [4] (after 90 min at 80 ppm, chamber perfused with room air) was not above 60 min. The “behavior of the animals after exposure” value with mice [4] (maintained for 4 weeks after 6 hr at 80 ppm, 15° C.) was “no apparent change in the behavior”. In the data set with mice [4] (setting [7]), the “core body temperature at which normal movement and respiration were fully apparent” value stood at 25 °C; the “core body temperature at which weak respiration was observed” value was 14 °C. The “acute effect of a single breath” value in the data set with humans [5] (atmosphere with 0.1% hydrogen sulfide) is on record as “immediately collapse”. For the same compound, the “OSHA limit for humans” value in the data set on humans [5] was 10 ppm. Moreover, the “acute effect of exposure” value in the data set with humans [5] (extreme levels (500 ppm)) is “sudden collapse and unconsciousness”. Further, in the data set with mice [6] (80 ppm (FIG. 4A)), the “decrease in CO2 production” value is “approximately 3 fold” and the “time to decrease in CO2 production / new baseline” value is “approximately 5 minutes”. Also, in the data set on mice [6] (setting [8]), the “drop in carbon dioxide production” value is on record as 3-4 fold and the “drop in oxygen consumption” value is 2-3 fold. For the same compound, the “decrease in cellular respiration” value with mice [6] (80 ppm, core temperature 15° C.) was 1-20 fold. The same compound displayed an RQ in the data set with mice [6] (H2S present (80 ppm)) of 0.58. The compound further returned a Consumption of oxygen in the data set on mice [6] (H2S present (80 ppm), control minus mouse present) of 1300 ppm. Besides, the “[CO2] ppm” value in the data set on mice [6] (mouse present, H2S present (80 ppm)) amounted to 750 ppm.
